± gives the standard deviation of the averaged measurements.
Key:
Assay in all cases: level (log10 ratio to DMSO vehicle control); higher = higher biomarker level / cell amount than vehicle control
[1] = compound: O=P(O)(O)CCC(F)(F)C(F)(F)C(F)(F)C(F)(F)C(F)(F)C(F)(F)F [2-(Perfluorohexyl)ethylphosphonic acid]; conditions: in DMSO
Procedure: (§1)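 BioMAP Diversity Plus panel of 12 human primary cell co-culture systems (3C, 4H, LPS, SAg, BT, BF4T, BE3C, CASM3C, HDF3CGF, KF3CT, MyoF, Mphg). Compounds were added 1 h before stimulation and left for 24 h (MyoF 48 h; BT 72 h for soluble read-outs or 6 d for IgG). Biomarkers were read by ELISA, cytotoxicity by SRB, PBMC viability and proliferation by Alamar Blue. Each well value was divided by the mean of 8 DMSO control wells on the same plate and log10 transformed; duplicate blinded samples were tested at 4 concentrations.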

[2] = compound: OCC(F)(F)C(F)(F)C(F)(F)C(F)(F)C(F)(F)C(F)(F)C(F)(F)C(F)(F)CO [1H,1H,10H,10H-Perfluorodecane-1,10-diol]; conditions: in DMSO
Procedure: as §1

[3] = compound: Cc1ccc(S(=O)(=O)OCC(F)(F)C(F)(F)C(F)(F)C(F)(F)C(F)(F)C(F)F)cc1 [1H,1H,7H-Perfluoroheptyl 4-methylbenzenesulfonate]; conditions: in DMSO
Procedure: as §1

[4] = compound: O=C(CC(=O)C(F)(F)C(F)(F)C(F)(F)F)c1cccs1 [(Perfluorobutyryl)-2-thenoylmethane]; conditions: in DMSO
Procedure: as §1

[5] = compound: C=CC(=O)OCC(F)(F)C(F)(F)C(F)(F)C(F)(F)C(F)(F)C(F)(F)C(F)(F)C(F)F [1H,1H,9H-Perfluorononyl acrylate]; conditions: in DMSO
Procedure: as §1

[6] = compound: FC(F)(F)C(F)(F)C(F)(F)C(F)(F)CCI [1H,1H,2H,2H-Perfluorohexyl iodide]; conditions: in DMSO
Procedure: as §1

[7] = compound: OCCC(F)(F)C(F)(F)C(F)(F)C(F)(F)C(F)(F)C(F)(F)C(F)(F)C(F)(F)F [8:2 Fluorotelomer alcohol]; conditions: 6700 nM; in DMSO
Procedure: as §1

Test System	level (log10) ([1]; 6700 nM)	level (log10) ([1]; 20000 nM)	level (log10) ([1]; 60000 nM)	level (log10) ([2]; 6700 nM)	level (log10) ([2]; 20000 nM)	level (log10) ([2]; 60000 nM)	level (log10) ([3]; 6700 nM)	level (log10) ([3]; 20000 nM)	level (log10) ([3]; 60000 nM)	level (log10) ([4]; 6700 nM)	level (log10) ([4]; 20000 nM)	level (log10) ([5]; 6700 nM)	level (log10) ([5]; 20000 nM)	level (log10) ([5]; 60000 nM)	level (log10) ([6]; 6700 nM)	level (log10) ([6]; 20000 nM)	level (log10) ([6]; 60000 nM)	level (log10) [7]
CASM3C:CD106/VCAM-1	-0.0105 ± 0.035	0.041 ± 0.014	0.0775 ± 0.044	0 ± 0.02	-0.0065 ± 0.025	-0.151	0.001 ± 0.0028	-0.011 ± 0.0014	0.0135 ± 0.005	-0.0225 ± 0.012	-0.104 ± 0.028	-0.0885 ± 0.028	-0.0715 ± 0.07	-0.12 ± 0.067	-0.023 ± 0.016	-0.057 ± 0.0057	-0.031 ± 0.075	-0.0825 ± 0.015
CASM3C:CD141/Thrombomodulin	0.027 ± 0.017	0.0185 ± 0.011	0.016 ± 0.0042	-0.0225 ± 0.028	-0.0335 ± 0.04	0.026	-0.002 ± 0.0014	0.032 ± 0.0085	0.067 ± 0.041	0.0115 ± 0.09	-0.008 ± 0.1	-0.014 ± 0.069	-0.0095 ± 0.0078	-0.0175 ± 0.033	-0.0085 ± 0.021	-0.009 ± 0.014	0.0275 ± 0.049	0.0135 ± 0.0021
CASM3C:CD142/Tissue Factor	-0.0165 ± 0.0064	-0.007 ± 0.014	-0.033 ± 0.0071	-0.0275 ± 0.015	-0.02 ± 0.0042	-0.033	-0.038 ± 0.014	-0.057 ± 0.047	-0.0205 ± 0.03	-0.144 ± 0.013	-0.105 ± 0.021	0.0345 ± 0.026	-0.003 ± 0.061	-0.016 ± 0.0014	-0.019 ± 0.034	-0.0065 ± 0.0078	0.0235 ± 0.035	-0.011 ± 0.014
CASM3C:CXCL8/IL-8	-0.0185 ± 0.013	-0.0015 ± 0.0021	0.0145 ± 0.005	-0.0275 ± 0.028	-0.048 ± 0.0099	-0.011	-0.0095 ± 0.015	-0.0055 ± 0.013	-0.002 ± 0.0099	-0.0045 ± 0.0021	-0.043 ± 0.0057	0.0175 ± 0.021	0.025 ± 0.0028	0.0415 ± 0.03	0.0105 ± 0.022	0.0145 ± 0.028	0.0255 ± 0.06	-0.006 ± 0.011
CASM3C:CXCL9/MIG	0.0095 ± 0.025	0.005 ± 0.033	0.0335 ± 0.066	-0.001	-0.0035 ± 0.005	-0.039	-0.0085 ± 0.011	-0.0195 ± 0.013	0.0135 ± 0.0021	-0.0295 ± 0.018	-0.0945 ± 0.077	-0.014 ± 0.0042	-0.0045 ± 0.028	-0.0035 ± 0.03	0.016 ± 0.028	0.022 ± 0.03	0.0575 ± 0.09	0.0025 ± 0.026
CASM3C:HLA-DR	0.0045 ± 0.015	0.015 ± 0.023	0.0345 ± 0.046	-0.0185 ± 0.0078	-0.0275 ± 0.0064	-0.065	-0.009 ± 0.0028	-0.021 ± 0.0014	-0.002 ± 0.0071	-0.018 ± 0.0042	-0.0365 ± 0.022	-0.0945 ± 0.044	-0.04 ± 0.071	0.021 ± 0.033	-0.012 ± 0.0085	-0.017 ± 0.02	0.0265 ± 0.081	-0.022 ± 0.018
CASM3C:IL-6	-0.0285 ± 0.005	-0.0425 ± 0.018	-0.0095 ± 0.025	-0.045 ± 0.027	-0.071 ± 0.025	-0.059	-0.035 ± 0.013	-0.0435 ± 0.005	-0.0155 ± 0.033	-0.006 ± 0.028	-0.068 ± 0.013	-0.036 ± 0.042	0.0085 ± 0.074	-0.031 ± 0.047	0.0195 ± 0.028	0.005 ± 0.025	0.036 ± 0.098	-0.015 ± 0.014
CASM3C:LDLR	-0.011 ± 0.017	-0.0115 ± 0.0092	-0.0135 ± 0.0092	-0.016 ± 0.035	0.0035 ± 0.016	-0.048	-0.0095 ± 0.0092	0.007 ± 0.0099	0.0285 ± 0.022	-0.044 ± 0.025	-0.079 ± 0.033	-0.0545 ± 0.026	0.0515 ± 0.042	0.0355 ± 0.063	0.0305 ± 0.021	0.02 ± 0.035	0.0415 ± 0.053	-0.0045 ± 0.0078
CASM3C:M-CSF	0.0025 ± 0.005	0.0115 ± 0.011	-0.0055 ± 0.037	-0.052 ± 0.027	-0.054 ± 0.014	-0.065	-0.024 ± 0.0028	-0.0445 ± 0.013	0.007 ± 0.051	0.014	0.012 ± 0.04	-0.0225 ± 0.06	0.001 ± 0.031	-0.041 ± 0.071	-0.013 ± 0.0014	-0.02 ± 0.0014	0.0035 ± 0.049	-0.0135 ± 0.012
CASM3C:PAI-I	-0.0075 ± 0.00071	-0.0055 ± 0.005	0.007 ± 0.013	-0.0095 ± 0.0035	-0.011 ± 0.0042	-0.01	-0.004 ± 0.0028	-0.007 ± 0.0085	-0.008 ± 0.016	-0.0135 ± 0.005	-0.008 ± 0.0057	0.007 ± 0.0057	0.0045 ± 0.0035	-0.005 ± 0.028	0.0135 ± 0.022	0.0165 ± 0.022	0.0125 ± 0.044	-0.0035 ± 0.011
CASM3C:Proliferation	-0.0385 ± 0.0064	-0.05 ± 0.013	-0.06 ± 0.0085	-0.011 ± 0.021	-0.0215 ± 0.00071	-0.324	-0.009 ± 0.031	0.035 ± 0.064	-0.0075 ± 0.025	-0.0865 ± 0.013	-0.245 ± 0.018	0.03 ± 0.034	0.0175 ± 0.057	-0.03 ± 0.093	-0.01 ± 0.0071	-0.0155 ± 0.016	-0.0535 ± 0.0064	0.003 ± 0.017
CASM3C:SRB	-0.0005 ± 0.0035	-0.012 ± 0.017	-0.016 ± 0.02	0.0015 ± 0.0021	-0.002 ± 0.0099	-0.067	0.002 ± 0.0014	-0.0055 ± 0.0078	-0.0125 ± 0.0035	0.0105 ± 0.0064	-0.0125 ± 0.0078	0.0075 ± 0.015	0.005 ± 0.0014	-0.001 ± 0.014	0 ± 0.014	-0.0005 ± 0.0092	-0.005 ± 0.033	-0.014 ± 0.0057
CASM3C:Serum Amyloid A	0.004 ± 0.023	-0.0045 ± 0.0035	0.0235 ± 0.0092	-0.011 ± 0.0042	-0.016 ± 0.0057	-0.059	-0.0445 ± 0.021	-0.0515 ± 0.0078	0.0015 ± 0.06	0.0285 ± 0.013	-0.038 ± 0.013	-0.014 ± 0.014	-0.0825 ± 0.071	-0.067 ± 0.0071	-0.017 ± 0.0042	-0.0155 ± 0.039	0.0305 ± 0.1	0.0015 ± 0.016
HDF3CGF:CCL2/MCP-1	-0.0335 ± 0.0021	-0.013 ± 0.023	-0.053 ± 0.023	-0.01	-0.0565 ± 0.036	-0.724	-0.0645 ± 0.026	-0.108 ± 0.013	-0.091 ± 0.0042	-0.005 ± 0.011	-0.172 ± 0.014	-0.0315 ± 0.03	-0.045 ± 0.03	-0.0815 ± 0.046	-0.0045 ± 0.005	0.0155 ± 0.012	0.007 ± 0.021	-0.0175 ± 0.032
HDF3CGF:CD54/ICAM-1	0.045 ± 0.04	0.0145 ± 0.059	0.0065 ± 0.044	0.002 ± 0.027	0.005 ± 0.0028	-0.753	0.0005 ± 0.016	0.0385 ± 0.042	0.026 ± 0.055	-0.0475 ± 0.011	-0.0295 ± 0.0064	-0.021 ± 0.018	-0.0435 ± 0.00071	-0.0765 ± 0.042	-0.023 ± 0.013	-0.0005 ± 0.005	-0.0085 ± 0.016	0.0315 ± 0.035
HDF3CGF:CD106/VCAM-1	0.041 ± 0.013	0.0625 ± 0.013	0 ± 0.0057	-0.038 ± 0.016	-0.0995 ± 0.073	-0.322	-0.061 ± 0.013	-0.046 ± 0.016	-0.0335 ± 0.0035	-0.0405 ± 0.018	0.025 ± 0.0042	-0.0565 ± 0.079	-0.29 ± 0.029	-0.453 ± 0.14	-0.043 ± 0.082	-0.0425 ± 0.026	-0.168 ± 0.022	-0.0265 ± 0.015

Reference: the supplement of paper PMC10331698
